Results taken from the supplement of paper PMC10307832.

Columns and labels:
Assay in all cases: relative viability (nuclei count vs DMSO), 5 days (fraction); higher = more cells survive
[1] = compound: C1=CC2=C(C=C(C(=C2N=C1)O)N=NC3=CC4=C(C=C3)C=C(C=C4)S(=O)(=O)O)S(=O)(=O)O + CC1(C)CCC(c2ccc(Cl)cc2)=C(CN2CCN(c3ccc(C(=O)NS(=O)(=O)c4ccc(N[C@H](CCN5CCOCC5)CSc5ccccc5)c(S(=O)(=O)C(F)(F)F)c4)cc3)CC2)C1 [Navitoclax] (partner 0.5 µM)
Method in brief: (§1)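 Relative viability is defined as nuclei in treated wells over nuclei in vehicle wells. Duplicate plates were run and medians reported. Lung cancer cell lines in 1536-well plates were dosed by pin tool one day after seeding, with one drug or with a fixed anchor-drug dose plus five library-drug doses (not always all listed) in √10 steps, and nuclei were counted after 5 days.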

AT-7519 + Phenformin = compound: O=C(NC1CCNCC1)c1n[nH]cc1NC(=O)c1c(Cl)cccc1Cl [AT-7519] + N=C(N)NC(=N)NCCc1ccccc1 [Phenformin] (partner 250 µM)
Method in brief: as §1

[2] = compound: C1=CC2=C(C=C(C(=C2N=C1)O)N=NC3=CC4=C(C=C3)C=C(C=C4)S(=O)(=O)O)S(=O)(=O)O
Method in brief: (§2)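 Viability is treated-well nuclei as a fraction of vehicle-well nuclei, reported as the median across plates. Before counting, lung cancer cell lines were kept overnight at 37 °C in 1536-well plates, pinned with five √10-spaced library-drug doses on vehicle-anchored plates, and left 5 days without medium change, then fixed, permeabilised and Hoechst-stained in one step, imaged at 4× and counted by MetaXpress. A plate passed only if control CV was below 25% and at least one doubling occurred.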

AT-7519 = compound: O=C(NC1CCNCC1)c1n[nH]cc1NC(=O)c1c(Cl)cccc1Cl [AT-7519]
Method in brief: as §2

Cell Line | relative viability ([1]; first compound 0.08 µM) | relative viability ([1]; first compound 0.253 µM) | relative viability ([1]; first compound 0.8 µM) | relative viability ([1]; first compound 2.53 µM) | relative viability ([1]; first compound 8 µM) | relative viability (AT-7519 + Phenformin; first compound 0.01 µM) | relative viability (AT-7519 + Phenformin; first compound 0.03162 µM) | relative viability (AT-7519 + Phenformin; first compound 0.3162 µM) | relative viability (AT-7519 + Phenformin; first compound 1 µM) | relative viability ([2]; 0.08 µM) | relative viability ([2]; 0.253 µM) | relative viability ([2]; 0.8 µM) | relative viability ([2]; 2.53 µM) | relative viability ([2]; 8 µM) | relative viability (AT-7519; 0.01 µM) | relative viability (AT-7519; 0.03162 µM) | relative viability (AT-7519; 0.3162 µM) | relative viability (AT-7519; 1 µM)
NCI-H3122 | 0.98 | 1.04 | 0.996 | 1.03 | 1.04 | 0.405 | 0.37 | 0.325 | 0.13 | 1.03 | 0.976 | 0.98 | 0.999 | 0.956 | 1.09 | 1 | 1.01 | 0.699
HCC-827 | 1 | 0.977 | 0.995 | 1.03 | 1 | 0.457 | 0.437 | 0.341 | 0.246 | 1.08 | 0.997 | 1.01 | 1.02 | 1.04 | 1.04 | 1.04 | 1.02 | 0.997
SK-LU-1 | 1.15 | 0.947 | 0.747 | 0.732 | 0.801 | 0.499 | 0.444 | 0.322 | 0.231 | 1.17 | 1.02 | 1.02 | 0.979 | 0.988 | 1.08 | 0.959 | 0.924 | 0.73
NCI-H1975 | 1.3 | 1.13 | 1.07 | 1.26 | 0.979 | 0.382 | 0.408 | 0.274 | 0.155 | 1.01 | 0.948 | 0.989 | 1.01 | 0.924 | 1.04 | 0.849 | 0.879 | 0.442
NCI-H1651 | 1.04 | 0.932 | 1.14 | 1.15 | 0.991 | 0.298 | 0.344 | 0.36 | 0.325 | 1.03 | 0.966 | 0.961 | 0.991 | 0.931 | 0.959 | 0.897 | 1.02 | 0.997
NCI-H441 | 0.706 | 0.573 |  | 0.479 | 0.431 | 0.847 | 0.955 | 0.775 | 0.515 | 1.16 | 0.942 | 0.898 | 1.06 | 0.947 | 1.03 | 1.02 | 1.05 | 0.523
LCLC-97TM1 |  | 0.224 |  | 0.509 | 0.41 | 0.476 | 0.456 | 0.42 | 0.289 | 1.16 | 0.873 | 0.833 | 0.926 | 0.999 | 0.918 | 0.892 | 0.844 | 0.47
NCI-H727 | 0.358 | 0.378 | 0.415 | 0.453 | 0.49 | 0.527 | 0.584 | 0.509 | 0.417 | 1.15 | 0.921 | 0.923 | 0.958 | 0.941 | 0.954 | 0.802 | 0.849 | 0.447
NCI-H1355 | 1.03 | 0.944 | 0.913 | 1.03 | 0.96 | 0.455 | 0.461 | 0.371 | 0.458 | 1.08 | 0.982 | 0.965 | 0.993 | 0.856 | 1.01 | 0.961 | 0.992 | 1.05
HOP-62 | 1.1 | 1.03 | 1.12 | 1.07 | 1.1 | 0.706 | 0.655 | 0.512 | 0.679 | 1.06 | 0.931 | 0.964 | 1.03 | 1.04 | 0.949 | 0.949 | 1.04 | 1.04
NCI-H2085 | 1.2 | 1.14 | 0.98 | 1.12 | 1.18 | 0.744 | 0.7 | 0.759 | 0.53 | 1.1 | 0.997 | 0.946 | 1.04 | 1.03 | 1.01 | 1 | 1.01 | 1.01
